Measured values reported in US20240360114A1 (SIRONAX LTD., priority 2021, published 2024).

Test system: HT-1080 cells
Experiment: HT-1080 cell viability assay (ferroptosis induced by RSL3, Cell Titer-Glo)
Format: cell-based
Details: Homo sapiens, ferroptosis inducer RSL3, 20 hours, ferroptosis inhibitory activity
Outline: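 Cells seeded overnight, then co-treated with RSL3 and compound (3-fold, 10-point dilution, top 1.1 μM) for 20 hours. Viability by CellTiter-Glo luminescence, normalized to untreated controls; EC50 from sigmoidal non-linear regression.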

SMILES	EC50 (HT-1080, 20 h, Table 2) [µM]	EC50 (HT-1080, 20 h, Table 3) [µM]	also measured
Cc1nc(N2CC[Si](C)(C)CC2)ccc1NC1CC2(CC(N)C2)C1 (centres unmarked) [Compound 556, N2-(6-(4,4-dimethyl-1,4-azasilinan-1-yl)-2-methylpyridin-3-yl)spiro[3.3]heptane-2,6-diamine]	0.0001 to 0.1	–	–
N[C@H]1CC[C@H](CNc2ccc(C3CCN(CC(F)(F)F)CC3)cc2)CC1 [Compound 559, N-(((1r, 4r)-4-aminocyclohexyl)methyl)-4-(1-(2,2,2-trifluoroethyl)piperidin-4-yl)aniline]	0.0001 to 0.1	–	–
NC1CCC(Nc2ccc3cc(N4CCC(C(F)(F)F)CC4)ccc3c2)CC1 (centres unmarked) [Compound 561, N1-(6-(4-(trifluoromethyl)piperidin-1-yl)naphthalen-2-yl)cyclohexane-1,4-diamine]	–	–	EC50 (Table 2): 0.0001 to 0.1 µM
NC1CCC(Nc2ccc3nc(N4CCC(C(F)(F)F)CC4)ccc3c2)CC1 (centres unmarked) [Compound 562, N-(2-(4-(trifluoromethyl)piperidin-1-yl)quinolin-6-yl)cyclohexane-1,4-diamine]	0.0001 to 0.1	–	–
NC(=O)C1CCC(Nc2ccc3cc(N4CCC(C(F)(F)F)CC4)ccc3c2)CC1 (centres unmarked) [Compound 563, 4-((6-(4-(trifluoromethyl)piperidin-1-yl)naphthalen-2-yl)amino)cyclohexane-1-carboxamide]	0.0001 to 0.1	–	–
NC1CCC(Nc2ccc3cc(N4CCC(C(F)(F)F)CC4)cnc3c2)CC1 (centres unmarked) [Compound 572, N1-(3-(4-(trifluoromethyl)piperidin-1-yl)quinolin-7-yl)cyclohexane-1,4-diamine]	0.0001 to 0.1	–	–
NC1CCC(Nc2ccc3nc(N4CCC(C(F)(F)F)CC4)cnc3c2)CC1 (centres unmarked) [Compound 573, N1-(2-(4-(trifluoromethyl)piperidin-1-yl)quinoxalin-6-yl)cyclohexane-1,4-diamine]	0.0001 to 0.1	–	–
Cc1nc(N2C[C@@H](C)O[C@@H](C)C2)ccc1NCCC[C@H]1C[C@@H](N)C1 [Compound 578, N-(3-((1s,3R)-3-aminocyclobutyl)propyl)-6-((2S,6R)-2,6-dimethylmorpholino)-2-methylpyridin-3-amine]	–	0.0001 to 0.1	–
Cc1nc(N2CCC3(CCCOC3)CC2)ccc1NC[C@H]1CC[C@H](N)CC1 [Compound 581, N-(((1r,4r)-4-aminocyclohexyl)methyl)-2-methyl-6-(2-oxa-9-azaspiro [5.5]undecan-9-yl)pyridin-3-amine]	–	0.0001 to 0.1	–
Cc1nc(N2CCC3(CCOCC3)CC2)ccc1NC[C@H]1CC[C@H](N)CC1 [Compound 582, N-(((1r,4r)-4-aminocyclohexyl)methyl)-2-methyl-6-(3-oxa-9-azaspiro [5.5]undecan-9-yl)pyridin-3-amine]	–	0.0001 to 0.1	–
C[C@@H]1CN(c2ccc3cc(NCC[C@H]4C[C@H](N)C4)ccc3c2)C[C@H](C)O1 [Compound 583, N-(2-((1r,3S)-3-aminocyclobutyl)ethyl)-6-((2S,6R)-2,6-dimethylmorpholino) naphthalen-2-amine]	–	0.0001 to 0.1	–
Cc1nc(N2C[C@@H](C)O[C@@H](C)C2)ccc1NC1C2CC3CC1CC(CNCCO)(C3)C2 (some centres unmarked) [Compound 585]	–	0.0001 to 0.1	–
N[C@H]1CC[C@H](CNc2ccc(N3CCN(CC(F)(F)F)CC3)cc2F)CC1 [Compound 586, N-(((1r,4r)-4-aminocyclohexyl)methyl)-2-fluoro-4-(4-(2,2,2-trifluoroethyl)piperazin-1-yl)aniline]	–	0.0001 to 0.1	–
Cc1nc(N2C3CCC2CC3)ccc1NC1CC2(CC(N)C2)C1 (centres unmarked) [Compound 587, N2-(6-(7-azabicyclo[2.2.1]heptan-7-yl)-2-methylpyridin-3-yl)spiro[3.3]heptane-2,6-diamine]	–	0.1 to 1	–
CCC1CN(c2ccc(NC3C4CC5CC3CC(C(N)=O)(C5)C4)c(C)n2)CCO1 (centres unmarked) [Compound 590]	–	0.1 to 1	–
NC1CC(Nc2ccc3nc(N4CCC(C(F)(F)F)CC4)ccc3c2)C1 (centres unmarked) [Compound 592, N1-(2-(4-(trifluoromethyl)piperidin-1-yl)quinolin-6-yl)cyclobutane-1,3-diamine]	–	0.0001 to 0.1	–
NC1CC(Nc2ccc3cc(N4CCN(CC(F)(F)F)CC4)ccc3c2)C1 (centres unmarked) [Compound 593, N^1-(6-(4-(2,2,2-trifluoroethyl)piperazin-1-yl)naphthalen-2-yl)cyclobutane-1,3-diamine]	–	0.0001 to 0.1	–

Continued, in another order:

EC50 (HT-1080, 20 h, Table 2) [µM]	EC50 (HT-1080, 20 h, Table 3) [µM]	SMILES	also measured
0.0001 to 0.1	–	Cc1nc(NCC(F)(F)F)ccc1NC1CC2(CC(N)C2)C1 (centres unmarked) [Compound 557, N3-(6-aminospiro [3.3]heptan-2-yl)-6-methyl-N2-(2,2,2-trifluoroethyl)pyridine-2,5-diamine]	–
0.0001 to 0.1	–	Cc1nc(N(C)CC(F)(F)F)ccc1NC1CC2(CC(N)C2)C1 (centres unmarked) [Compound 558, N^5-(6-aminospiro [3.3]heptan-2-yl)-N2,6-dimethyl-N2-(2,2,2-trifluoroethyl)pyridine-2,5-diamine]	–
0.0001 to 0.1	–	NC1CC2(C1)CC(Nc1ccc(C3CCN(CC(F)(F)F)CC3)cc1)C2 (centres unmarked) [Compound 560, N2-(4-(1-(2,2,2-trifluoroethyl)piperidin-4-yl)phenyl)spiro[3.3]heptane-2,6-diamine]	–
0.0001 to 0.1	–	CC1CN(c2ccc3cc(NC4CC5(CC(N)C5)C4)ccc3c2)CC(C)O1 (centres unmarked) [Compound 564, N^2-(6-(2,6-dimethylmorpholino)naphthalen-2-yl)spiro[3.3]heptane-2,6-diamine]	–
0.0001 to 0.1	–	C[C@@H]1CN(c2ccc3cc(NC4CC5(CC(N)C5)C4)ccc3n2)C[C@H](C)O1 (stereo partly drawn) [Compound 565, N2-(2-((2S,6R)-2,6-dimethylmorpholino)quinolin-6-yl)spiro[3.3]heptane-2,6-diamine]	–
0.0001 to 0.1	–	CC1CN(c2ccc3cc(NC4CC5(CC(N)C5)C4)ccc3n2)CC(C)N1C(=O)C(F)(F)F (centres unmarked) [Compound 566]	–
0.0001 to 0.1	–	CC1CN(c2ccc3cc(NC4CC5(CC(N)C5)C4)ccc3n2)CC(C)N1CC(F)(F)F (centres unmarked) [Compound 567, N2-(2-(3,5-dimethyl-4-(2,2,2-trifluoroethyl)piperazin-1-yl)quinolin-6-yl)spiro-[3.3]heptane-2,6-diamine]	–
0.0001 to 0.1	–	Cc1nc(N2CC(C)SC(C)C2)ccc1NC1CC2(CC(N)C2)C1 (centres unmarked) [Compound 568, N2-(6-(2,6-dimethylthiomorpholino)-2-methylpyridin-3-yl)spiro[3.3]heptane-2,6-diamine]	–
0.0001 to 0.1	–	Cc1nc(N2CCSCC2)ccc1NC1CC2(CC(N)C2)C1 (centres unmarked) [Compound 569, N^2-(2-methyl-6-thiomorpholinopyridin-3-yl) spiro[3.3]heptane-2,6-diamine]	–
0.0001 to 0.1	–	CC1CN(c2ccc3cc(NC4CC5(CC(N)C5)C4)ncc3c2)CC(C)O1 (centres unmarked) [Compound 570, N2-(7-(2,6-dimethylmorpholino)isoquinolin-3-yl)spiro[3.3]heptane-2,6-diamine]	–
0.0001 to 0.1	–	CC1CN(c2ncc3cc(NC4CC5(CC(N)C5)C4)ccc3n2)CC(C)O1 (centres unmarked) [Compound 571, N^2-(2-(2,6-dimethylmorpholino)quinazolin-6-yl)spiro[3.3]heptane-2,6-diamine]	–
–	0.0001 to 0.1	Cc1cc(NC2CC3(CC(N)C3)C2)ccc1N1CCN(CC(F)(F)F)CC1 (centres unmarked) [Compound 574, N^2-(3-methyl-4-(4-(2,2,2-trifluoroethyl)piperazin-1-yl)phenyl)spiro/3.3/heptane-2.6-diamine]	–
–	0.0001 to 0.1	CC[C@@H]1CN(c2ccc(NC3CC4(C3)CC(C(N)=O)C4)c(C)n2)C[C@H](CC)O1 (stereo partly drawn) [Compound 575, 6-((6-((2S,6R)-2,6-diethylmorpholino)-2-methylpyridin-3-yl)amino)spiro[3.3]heptane-2-carboxamide]	–
–	0.0001 to 0.1	CC[C@@H]1CN(c2ccc(NC3CC(N)C3)c(C)n2)C[C@H](CC)O1 (stereo partly drawn) [Compound 576, N1-(6-((2S,6R)-2,6-diethylmorpholino)-2-methylpyridin-3-yl)cyclobutane-1,3-diamine]	–
–	0.0001 to 0.1	Cc1nc(N2C[C@@H](C)N(CC(F)(F)F)[C@@H](C)C2)ccc1NC1C[C@H]2CC(N)C[C@H]2C1 (stereo partly drawn) [Compound 577, (3aR,6aS)-N2-(6-((3R,5S)-3,5-dimethyl-4-(2.2,2-trifluoroethyl)piperazin-1-yl)-2-methylpyridin-3-yl)octahydropentalene-2,5-diamine]	–
–	0.0001 to 0.1	CC1CN(c2ccc(NC3CC4(CC(N)C4)C3)c(F)n2)CC(C)N1CC(F)(F)F (centres unmarked) [Compound 579, N2-(6-(3,5-dimethyl-4-(2,2,2-trifluoroethyl)piperazin-1-yl)-2-fluoropyridin-3-yl)spiro[3.3]heptane-2,6-diamine]	–
–	0.0001 to 0.1	CC1CN(c2ncc(NC3CC4(CC(N)C4)C3)cc2F)CC(C)N1CC(F)(F)F (centres unmarked) [Compound 580, N^2-(6-(3.5-dimethyl-4-(2,2,2-trifluoroethyl)piperazin-1-yl)-5-fluoropyridin-3-yl)spiro[3.3]hept ane-2,6-diamine]	–
–	0.0001 to 0.1	NC(=O)C1CC2(CC(Nc3ccc4cc(N5CCC(C(F)(F)F)CC5)ccc4c3)C2)C1 (centres unmarked) [Compound 584, 6-((6-(4-(trifluoromethyl)piperidin-1-yl)naphthalen-2-yl)amino)spiro[3.3]heptane-2-carboxamide]	–
–	0.0001 to 0.1	Cc1nc(N2CC(C)OC(C(F)(F)F)C2)ccc1NC1CC2(CC(N)C2)C1 (centres unmarked) [Compound 588]	–
–	0.0001 to 0.1	Cc1nc(N2CC(C)(C)OC(C)(C)C2)ccc1NC1CC2(CC(NCC(F)(F)F)C2)C1 (centres unmarked) [Compound 589]	–
–	0.1 to 1	COC(C)(C)C1CCN(c2ccc(NC3CC(N)C3)c(C)n2)CC1 (centres unmarked) [Compound 591]	–
–	0.0001 to 0.1	Cc1nc(N2CCC(C3CC(C)OC(C)C3)CC2)ccc1NC1CC2(CC(N)C2)C1 (centres unmarked) [Compound 594, N^2-(6-(4-(2,6-dimethyltetrahydro-2H-pyran-4-yl)piperidin-1-yl)-2-methylpyridin-3-yl)spiro[3.3]heptane-2,6-diamine]	–
–	0.0001 to 0.1	Cc1nc(NC(C)(C)C)ccc1NC[C@H]1CC[C@H](N)CC1 [Compound 595, N^5-(((1r,4r)-4-aminocyclohexyl)methyl)-N^2-(tert-butyl)-6-methylpyridine-2,5-diamine]	–
–	0.0001 to 0.1	Cc1nc(NC(C)(C)C)ccc1NC1CC2(CC(N)C2)C1 (centres unmarked) [Compound 596, N^5-(6-aminospiro [3.3]heptan-2-yl)-N^2-(tert-butyl)-6-methylpyridine-2,5-diamine]	–
